PubChem BioAssay (NCI)
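In this assay, cells in 96-well plates receive the compound at five concentrations for 48 hours. Endpoints are linearly interpolated between the surrounding concentrations. TGI: concentration producing complete growth inhibition.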

What was measured:
Test in all cases: NCI tumour cell line growth inhibition, 48 h
786-0 renal = test system: 786-0 renal
A498 renal = test system: A498 renal
A549 NSCLC = test system: A549 NSCLC
ACHN renal = test system: ACHN renal
CAKI-1 renal = test system: CAKI-1 renal
CCRF-CEM leukemia = test system: CCRF-CEM leukemia
COLO 205 colon = test system: COLO 205 colon
DLD-1 colon = test system: DLD-1 colon
DMS 114 small cell lung = test system: DMS 114 small cell lung
DMS 273 small cell lung = test system: DMS 273 small cell lung
EKVX NSCLC = test system: EKVX NSCLC
HCC-2998 colon = test system: HCC-2998 colon
HCT-116 colon = test system: HCT-116 colon
HCT-15 colon = test system: HCT-15 colon
HL-60(TB) leukemia = test system: HL-60(TB) leukemia
HOP-18 NSCLC = test system: HOP-18 NSCLC
HOP-62 NSCLC = test system: HOP-62 NSCLC
HOP-92 NSCLC = test system: HOP-92 NSCLC
K-562 leukemia = test system: K-562 leukemia
KM12 colon = test system: KM12 colon
LOX IMVI melanoma = test system: LOX IMVI melanoma
LXFL 529 NSCLC = test system: LXFL 529 NSCLC
M14 melanoma = test system: M14 melanoma
M19-MEL melanoma = test system: M19-MEL melanoma
MALME-3M melanoma = test system: MALME-3M melanoma
MOLT-4 leukemia = test system: MOLT-4 leukemia
NCI-H226 lung = test system: NCI-H226 lung
NCI-H460 lung = test system: NCI-H460 lung
NCI-H522 lung = test system: NCI-H522 lung
OVCAR-3 ovarian = test system: OVCAR-3 ovarian
OVCAR-4 ovarian = test system: OVCAR-4 ovarian
OVCAR-5 ovarian = test system: OVCAR-5 ovarian
RPMI-8226 leukemia = test system: RPMI-8226 leukemia
RXF-631 renal = test system: RXF-631 renal
SF-268 CNS = test system: SF-268 CNS
SF-295 CNS = test system: SF-295 CNS
SF-539 CNS = test system: SF-539 CNS
SK-MEL-2 melanoma = test system: SK-MEL-2 melanoma
SK-MEL-28 melanoma = test system: SK-MEL-28 melanoma
SN12C renal = test system: SN12C renal
SNB-19 CNS = test system: SNB-19 CNS
SNB-75 CNS = test system: SNB-75 CNS
SNB-78 CNS = test system: SNB-78 CNS
SR leukemia = test system: SR leukemia
SW-620 colon = test system: SW-620 colon
TK-10 renal = test system: TK-10 renal
U251 CNS = test system: U251 CNS
UACC-257 melanoma = test system: UACC-257 melanoma
UACC-62 melanoma = test system: UACC-62 melanoma
UO-31 renal = test system: UO-31 renal
XF 498 CNS = test system: XF 498 CNS
HT29 colon = test system: HT29 colon
IGROV1 ovarian = test system: IGROV1 ovarian
KM20L2 colon = test system: KM20L2 colon
MCF7 breast = test system: MCF7 breast
NCI-H23 lung = test system: NCI-H23 lung
NCI/ADR-RES ovarian = test system: NCI/ADR-RES ovarian
OVCAR-8 ovarian = test system: OVCAR-8 ovarian
P388 leukemia = test system: P388 leukemia
P388/ADR leukemia = test system: P388/ADR leukemia
RXF 393 renal = test system: RXF 393 renal
SK-MEL-5 melanoma = test system: SK-MEL-5 melanoma
SK-OV-3 ovarian = test system: SK-OV-3 ovarian
SN12K1 renal = test system: SN12K1 renal

COc1c(Cl)c2c(c(OC)c1OC)-c1ccc(OC)c(=O)c(Cl)c1C(NC(C)=O)CC2 (stereo not drawn)
TGI (786-0 renal): > 33.8 µM
TGI (A498 renal): 0.413 µM
TGI (A549 NSCLC): > 100 µM
TGI (ACHN renal): > 100 µM
TGI (CAKI-1 renal): > 100 µM
TGI (CCRF-CEM leukemia): > 33.8 µM
TGI (COLO 205 colon): 0.647 µM
TGI (DLD-1 colon): > 100 µM
TGI (DMS 114 small cell lung): 1.11 µM
TGI (DMS 273 small cell lung): > 100 µM
TGI (EKVX NSCLC): > 100 µM
TGI (HCC-2998 colon): 0.453 µM
TGI (HCT-116 colon): 0.322 µM
TGI (HCT-15 colon): 2.38 µM
TGI (HL-60(TB) leukemia): 2.77 µM
TGI (HOP-18 NSCLC): > 100 µM
TGI (HOP-62 NSCLC): > 27.2 µM
TGI (HOP-92 NSCLC): 13.8 µM
TGI (K-562 leukemia): > 100 µM
TGI (KM12 colon): > 100 µM
TGI (LOX IMVI melanoma): 5.87 µM
TGI (LXFL 529 NSCLC): > 100 µM
TGI (M14 melanoma): 4.61 µM
TGI (M19-MEL melanoma): > 28.4 µM
TGI (MALME-3M melanoma): > 100 µM
TGI (MOLT-4 leukemia): > 100 µM
TGI (NCI-H226 lung): 1.59 µM
TGI (NCI-H460 lung): 1.34 µM
TGI (NCI-H522 lung): 0.468 µM
TGI (OVCAR-3 ovarian): 0.378 µM
TGI (OVCAR-4 ovarian): > 100 µM
TGI (OVCAR-5 ovarian): > 100 µM
TGI (RPMI-8226 leukemia): 10.3 µM
TGI (RXF-631 renal): 6.32 µM
TGI (SF-268 CNS): 3.57 µM
TGI (SF-295 CNS): 0.49 µM
TGI (SF-539 CNS): 0.444 µM
TGI (SK-MEL-2 melanoma): 7.87 µM
TGI (SK-MEL-28 melanoma): > 100 µM
TGI (SN12C renal): > 36.4 µM
TGI (SNB-19 CNS): > 100 µM
TGI (SNB-75 CNS): 1.1 µM
TGI (SNB-78 CNS): > 100 µM
TGI (SR leukemia): > 100 µM
TGI (SW-620 colon): > 100 µM
TGI (TK-10 renal): > 100 µM
TGI (U251 CNS): 1.15 µM
TGI (UACC-257 melanoma): > 100 µM
TGI (UACC-62 melanoma): 44.6 µM
TGI (UO-31 renal): > 100 µM
TGI (XF 498 CNS): 12.9 µM

CN1C(=O)c2ccccc2NC(=O)c2cnn(C)c21
TGI (A498 renal): > 100 µM
TGI (A549 NSCLC): > 100 µM
TGI (CAKI-1 renal): > 100 µM
TGI (CCRF-CEM leukemia): > 100 µM
TGI (COLO 205 colon): > 100 µM
TGI (DLD-1 colon): > 100 µM
TGI (DMS 114 small cell lung): > 100 µM
TGI (DMS 273 small cell lung): > 100 µM
TGI (EKVX NSCLC): > 100 µM
TGI (HCC-2998 colon): > 100 µM
TGI (HCT-116 colon): > 57.4 µM
TGI (HCT-15 colon): > 100 µM
TGI (HL-60(TB) leukemia): > 100 µM
TGI (HOP-18 NSCLC): > 100 µM
TGI (HOP-62 NSCLC): > 100 µM
TGI (HOP-92 NSCLC): > 100 µM
TGI (HT29 colon): > 100 µM
TGI (IGROV1 ovarian): > 100 µM
TGI (K-562 leukemia): > 100 µM
TGI (KM12 colon): > 100 µM
TGI (KM20L2 colon): > 100 µM
TGI (LOX IMVI melanoma): > 100 µM
TGI (M19-MEL melanoma): > 100 µM
TGI (MALME-3M melanoma): > 100 µM
TGI (MCF7 breast): > 100 µM
TGI (MOLT-4 leukemia): > 100 µM
TGI (NCI-H226 lung): > 100 µM
TGI (NCI-H23 lung): > 100 µM
TGI (NCI-H460 lung): > 100 µM
TGI (NCI-H522 lung): > 100 µM
TGI (NCI/ADR-RES ovarian): > 100 µM
TGI (OVCAR-3 ovarian): > 100 µM
TGI (OVCAR-4 ovarian): > 100 µM
TGI (OVCAR-5 ovarian): > 100 µM
TGI (OVCAR-8 ovarian): > 100 µM
TGI (P388 leukemia): > 100 µM
TGI (P388/ADR leukemia): > 100 µM
TGI (RPMI-8226 leukemia): > 100 µM
TGI (RXF 393 renal): > 100 µM
TGI (SF-268 CNS): > 100 µM
TGI (SF-295 CNS): > 100 µM
TGI (SF-539 CNS): > 100 µM
TGI (SK-MEL-2 melanoma): > 100 µM
TGI (SK-MEL-28 melanoma): > 100 µM
TGI (SK-MEL-5 melanoma): > 100 µM
TGI (SK-OV-3 ovarian): > 100 µM
TGI (SN12C renal): > 100 µM
TGI (SN12K1 renal): > 100 µM
TGI (SNB-19 CNS): > 100 µM
TGI (SNB-75 CNS): > 100 µM
TGI (SNB-78 CNS): > 100 µM
TGI (SW-620 colon): > 100 µM
TGI (U251 CNS): > 100 µM
TGI (UACC-257 melanoma): > 100 µM
TGI (UACC-62 melanoma): > 100 µM
TGI (UO-31 renal): > 100 µM
TGI (XF 498 CNS): > 100 µM
